In patent publication US5912259A, “Method for treating and preventing neurodegenerative disorders by administering a thiazolidinone” (Warner-Lambert Company, priority 1998, dated 1999):
Where two headings read alike, the source gives them in different places.

Assays:
[1] = test system: experimental autoimmune encephalomyelitis (EAE); experiment: Experimental autoimmune encephalomyelitis (EAE) in mice, Experiment 2; format: in vivo, mouse, PL/J(F1)×SJL/J; conditions: sensitized
Experimental: (§1) The thiazolidinone was evaluated in a mouse model of experimental autoimmune encephalomyelitis (EAE). The compound was administered orally to mice sensitized with a fragment of mouse myelin basic protein to induce EAE. Two experiments were conducted using the same protocol and neurological evaluations. Test animals were dosed for 21 days, beginning 4 hours before sensitization on Day 1. The effects of the thiazolidinone were compared to a control group of mice sensitized identically and dosed with vehicle alone. Neurological evaluations continued after cessation of drug treatment. The values reported in Tables 1 and 2 below include responses during drug treatment only.
(§2) The thiazolidinone was homogenized manually with an aliquot of warm vehicle (0.5% hydroxypropyl methylcellulose with 0.2% Tween 80in water) in glass mortar tubes and homogenizing pestle. The smooth drug paste was gradually suspended in vehicle. Mice were dosed with drug and/or vehicle, […] in groups of ten (Experiment 1) or twenty (Experiment 2). Mice were dosed from Experiment Day 1 to Day 21. A sham-sensitized group was similarly dosed with vehicle or thiazolidinone 30 mg/kg (Experiment 1).
(§3) Female mice, strain PL/J(F1)×SJL/J from Jackson Labs, were sensitized s.c. (0.05 cc×2) at the base of the tail with an emulsion containing equal parts of mouse myelin basic protein (MBP) fragment (amino acids 1-9 of the N-terminus of MBP) in saline and Difco Complete Freund's Adjuvant (CFA) fortified with heat killed desiccated Mycobacteria tuberculosis (MT). Each mouse received 300 μg of the MBP fragment (230 μg free base) and 200 μg MT followed by retrobulbar (i.v.) injection of 200 ng of B. pertussis toxin in 0.2 cc of saline. Forty-eight hours later, mice received a second injection of B. pertussis toxin. Mice in Experiment 1 were 8 to 9 weeks old; mice in Experiment 2 were 11 weeks old.
(§4) Animals were weighed and evaluated for symptoms of EAE before sensitization and frequently for 21 days. EAE score: (0.5=slight limp tail, 1=limp tail or slow to right, 1.5=slight limp tail and slow to right, 2=paresis/mild paralysis or incontinence, 2.5=mild paralysis and slow to right or complete paralysis (one hind limb), 3=hind limb paralysis (both), 3.5=hind limb paralysis (both) and limp torso; 4=additional fore limb paralysis, 4.5=head movement only, 5=moribund, death after previous EAE symptoms). Evaluators were blinded as to drug treatments and previous behavioral scores.
(§5) Disease symptoms were compared among groups for EAE severity, incidence, time to onset, cumulative score, deaths, and weight loss. Peak EAE score: the mean of highest score of each mouse in a group, independent of duration of symptoms; EAE incidence: the mean number of mice showing symptoms of EAE, defined as having EAE scores on any three consecutive days that total≥3.0. EAE deaths: An animal that died must have presented previous evidence of an EAE score greater than 0.5; EAE onset: the first of a 3-day series scoring a total of≥3.0. A Cumulative EAE score is calculated for each animal. A mean of all animals' cumulative score is then determined for each day. Maximum weight loss: the mean of the lowest weight for each animal in a group. (Note: The Cumulative EAE score and the Maximum weight loss can be influenced by death which eliminates severely diseased animals. The number of days that animals are scored also affects the cumulative score and can only be compared "within-trial"). Mice that die from dosing trauma or with no previous symptoms of EAE are deleted from the study. Experimental groups were assumed to be similar and were compared for statistical significance by a two-tailed t-test (p≤0.05).
The previous study was repeated with three larger groups of sensitized mice treated with (1) vehicle, (2) thiazolidinone at 10 mg/kg, or (3) thiazolidinone at 30 mg/kg.

[2] = test system: IL-1β; experiment: Production of cytokine IL-1β; format: cell-based
[3] = Systemic exposure in rats; conditions: rat, in vivo, 10 mg/kg
Experimental: (§6) As noted above, the thiazolidinone is additionally well-suited to treating elderly patients because of its long duration of action and its substantial lack of undesirable side effects. Toxicologic properties of the thiazolidinone were evaluated in single-dose oral and intravenous (IV) studies in mice and rats and multidose oral studies in rats and dogs. The thiazolidinone was tested in dogs and monkeys in escalating-dose oral toxicity to determine the most sensitive nonrodent species. […] The initial 13-week dog study was repeated to evaluate the reproducibility of the perivascular effects. Dose range-finding studies were performed in pregnant rats and rabbits, and genotoxic potential was assessed in vitro and in vivo. […] Based on exposure at the no-effect dose in definitive studies, the rat appears to be the most sensitive species followed by the dog and the monkey, albeit with minor differences in exposure between the species.

[4] = test system: ICAM-1; experiment: Cell-surface expression of ICAM-1; format: cell-based
[5] = Toxicology studies in rats; format: in vivo, rat
Experimental: as §6

[6] = General pharmacokinetic and tolerability properties
[7] = Toxicology studies in dogs; format: in vivo, dog
Experimental: as §6

[8] = test system: experimental autoimmune encephalomyelitis (EAE)
Experimental: as §1, §2, §3, §4, §5

[9] = rats, definitive 13-week studies
[10] = sensitized, 30 mg oral, (a) deaths designated due to EAE
[11] = sensitized, 30 mg oral, (b) deaths due to unknown causes removed

Structure (SMILES): CC(C)(C)c1cc(/C=C2\SC(N)=NC2=O)cc(C(C)(C)C)c1O [CI-1004, (Z)-5-[[3,5-bis(1,1-dimethylethyl)-4-hydroxyphenyl]methylene]-2-imino-4-thiazolidinone methanesulfonate]
- Cumulative Score ([1]; 10 mg/kg oral): 31.3 ± 3.6
- Deaths ([1]; 10 mg/kg oral): 10/20
- EAE Incidence ([1]; 10 mg/kg oral): 19/19
- EAE Onset ([1]; 10 mg/kg oral): 11.8 days
- EAE Peak Score ([1]; 10 mg/kg oral): 4.5 ± 0.7
- Cumulative Score ([1]; 30 mg/kg oral): 28.9 ± 2.7
- Deaths ([1]; 30 mg/kg oral): 8/20
- EAE Incidence ([1]; 30 mg/kg oral): 20/20
- EAE Onset ([1]; 30 mg/kg oral): 12.4 days
- EAE Peak Score ([1]; 30 mg/kg oral): 4.3 ± 0.2
- daily EAE score or overall EAE responses ([1]; 10 or 30 mg/kg): no effect on the daily EAE score or overall EAE responses
- production of cytokine IL-1β [2]: blocks production of the cytokine IL-1β
- Cmax and AUC relative to male rats at the same dose [3]: approximately twice those in male rats at the same dose
- Cmax ([3]; po): 970 ng/mL
- AUC(0-t) at 24 h ([3]; po, male rats): 16500 ng·h/mL
- cell-surface expression of ICAM-1 [4]: blocks
- renal effects ([5]; female rats, 10 mg/kg): Renal effects were seen
- toxic effects ([5]; male rats, 10 mg/kg): No effects were observed
- hepatic enzyme induction ([5]; rats): hepatic enzyme induction which was not associated with overt organ toxicity
- gastrointestinal effects [5, 9]: gastrointestinal effects
- renal effects [5, 9]: minor renal effects
- GI tract and kidney tolerability [6]: relatively benign to the GI tract and kidneys
- blood-brain barrier passage [6]: readily crosses the blood-brain barrier
- half-life [6]: relatively long half-life
- hepatic enzyme induction [7]: hepatic enzyme induction which was not associated with overt organ toxicity
- gastrointestinal effects ([7]; definitive 13-week studies): gastrointestinal effects
- perivascular mononuclear infiltrates in brain ([7]; initial 13-week study): perivascular mononuclear infiltrates in brain were observed
- deaths at ≤Day 10 ([8]; mouse, in vivo, 30 mg/kg): three deaths
- Cumulative Score ([8]; sensitized, 3 mg oral): 20.3 ± 1.7
- Deaths ([8]; sensitized, 3 mg oral): 2/10
- EAE Incidence ([8]; sensitized, 3 mg oral): 10/10
- EAE Onset ([8]; sensitized, 3 mg oral): 12.2 ± 0.3 days
- EAE Peak Score ([8]; sensitized, 3 mg oral): 3.7 ± 0.3
- Cumulative Score ([8]; sensitized, 10 mg oral): 10.9 ± 1.7
- Deaths ([8]; sensitized, 10 mg oral): 2/10
- EAE Incidence ([8]; sensitized, 10 mg oral): 7/10
- EAE Onset ([8]; sensitized, 10 mg oral): 12.1 ± 1.5 days
- EAE Peak Score ([8]; sensitized, 10 mg oral): 3.0 ± 0.6
- daily EAE scores, incidence, cumulative EAE scores, weight loss ([8]; sensitized, 10 mg/kg): showed a suggestion of inhibition of daily EAE scores, reduced incidence, cumulative EAE scores, and weight loss
- Cumulative Score [8, 10]: 10.9 ± 3.4
- Deaths [8, 10]: 3/9
- EAE Incidence [8, 10]: 7/9
- EAE Onset [8, 10]: 12.7 ± 2.2 days
- EAE Peak Score [8, 10]: 3.1 ± 0.6
- Cumulative Score [8, 11]: 9.4 ± 3.4
- Deaths [8, 11]: 0/6
- EAE Incidence [8, 11]: 4/6
- EAE Onset [8, 11]: 16.0 ± 2.1 days
- EAE Peak Score ([8]; sensitized, 30 mg oral, (b) deaths due to unknown causes removed, p < 0.05): 2.1 ± 0.6
- overall EAE symptoms ([8]; sensitized, 30 mg/kg, Method A): no significant reduction in overall EAE symptoms
- peak EAE score and weight loss ([8]; sensitized, 30 mg/kg, Method B): significant reduction in the peak EAE score and weight loss
- daily EAE scores Days 10 to 21 ([8]; sensitized, 30 mg/kg, Methods A and B): tendency to reduced daily EAE scores from Days 10 to 21, although a statistically significant reduction was seen only on Day 15 (p≤0.05)
- EAE scores versus vehicle controls to Day 21 ([8]; sensitized, 3 or 10 mg/kg): did not show significantly reduced EAE scores
- Cumulative Score ([8]; sham-sensitized, 30 mg oral): 1.4 ± 0.6
- Deaths ([8]; sham-sensitized, 30 mg oral): 0/9
- EAE Incidence ([8]; sham-sensitized, 30 mg oral): 0/9
- EAE Peak Score ([8]; sham-sensitized, 30 mg oral): 0.8 ± 0
- EAE symptoms and deaths in sham-sensitized mice ([8]; sham-sensitized, 30 mg/kg): showed little symptoms of disease and no deaths
